Consider one molecule from publication PMC11302339, “A series of pyrimidine-based antifungals with anti-mold activity disrupt ER function in Aspergillus fumigatus” (Microbiology Spectrum, 2024).

Series [1] relates to S. cerevisiae. In words: MIC testing (broth dilution, YPD). It counts as cell-based. The note with it: Saccharomyces cerevisiae, 24 h. How it is done: (§1) MICs were determined using Clinical and Laboratory Standards Institute guidelines ([48], [49]). All yeasts were cultured overnight in 3 mL YPD at 30°C, then washed twice in sterile phosphate-buffered saline (PBS). Twofold serial dilutions of each drug were prepared in RMPI + MOPS, then 1 × 10^3 cells were added per well. For mold species, wells were inoculated with 1.25 × 10^3 conidia per well. Plates were incubated at 37°C for 24 (Candida spp. and S. cerevisiae), 48 (Aspergillus spp., M. circinelloides, S. apiospermum, and L. prolificans), or 72 (C. neoformans and F. oxysporum) hours. S. cerevisiae BY4743 MICs were tested in YPD due to nutritional requirements of this strain. Each assay was performed in technical duplicate in at least two independent experiments performed on different days.

Series [2] deals with C. auris. In words: MIC testing (CLSI broth dilution). Format: cell-based, Candida auris. To be noted: Candidozyma auris, CLSI conditions. Here is the method: as §1
(Broth dilution looks for growth in wells or tubes with falling amounts of substance.)

For series [3], the system named is C. neoformans MAPK mutants. In words: C. neoformans competition assay with MAPK mutants. Format: cell-based, Cryptococcus neoformans. To be noted: 1.5 µg/mL 1, 24 hours, 37°C. Here is the method:
H99-mNeon and MAPK mutants (obtained from the C. neoformans kinase deletion collection, FGSC) were grown overnight in YPD at 30°C then washed in PBS. Each strain was counted and diluted into 96-well plates such that each well contained 1 × 10^3 CFU/strain with 1.5 µg/mL 1 or DMSO in 100 µL total volume. Plates were incubated at 37°C for 24 hours before analyzing on an Attune NxT Flow Cytometer with CytKick autosampler and Attune Cytometric software. Gating strategy was optimized for single cells as previously described ([50]). mNeonGreen positive and negative populations were identified by histogram plot with 100,000 cells counted per sample. Data represent mean and SD of biological triplicate and are representative of two independent experiments.

Series [4] in a line: Protein binding analysis, brain. It counts as in vitro ADME.
The nature of series [5]: Pharmacokinetics in mice (serum/plasma and brain). It counts as in vivo, CD-1 mice. To be noted: single 10 mg/kg intraperitoneal; for Cmax / half-life: female, CD-1, mouse, ip, CD1 mice; for half-life: read-out: half-life (T1/2). How it is done:
Twenty-one female CD-1 mice were dosed intraperitoneally with 10 mg/kg 1. Whole blood was collected in a syringe coated with ACD. Plasma was processed from whole blood by centrifugation at 10,000 rpm for 10 min. Brain tissue was harvested and gently washed with 1× PBS to remove residual circulating blood. The tissue was weighed and snap frozen in liquid nitrogen.
For the standards and quality controls, 98.0 and 98.8 µL of blank vendor plasma were added to a microfuge tube and spiked with 2.0 and 1.2 µL of initial standard. Standards, quality controls, and samples of 100 µL were then precipitated with 200 µL of methanol containing 0.15% formic acid and […]. The samples were vortexed 15 s, incubated at room temperature for 10 min, and centrifuged at 13,200 rpm twice in a standard microcentrifuge. The supernatant was then analyzed by LC-MS/MS. The vendor supplied the plasma used in standards and quality controls (QCs; lot # MSE460968, ACD anti-coagulant; Bioreclamation, LLC).
Brain tissues were homogenized in 3× volume of PBS. For the standards and quality control samples, 98.0 and 98.8 µL of pooled blank brain were added to a microfuge tube and spiked with 2.0 or 1.2 µL of initial standard. Standards, quality control samples of 100 µL, were then precipitated with 200 µL of methanol containing 0.15% formic acid and 12.5 ng/mL IS (final concentrations). The samples were vortexed for 15 s, incubated at room temperature for 10 min, and centrifuged at 13,200 rpm twice in a standard microcentrifuge. The supernatant was then analyzed by LC-MS/MS.

In brackets after ≈: the same amount, converted by molar mass. Like-named read-outs stand apart in the source and are kept apart here.

For `OC1CC(c2cc(N3CCC(CCc4ccccc4)CC3)ncn2)C1` (stereo not drawn) [compound 1], the minimal inhibitory concentration (MIC) – broadly, the lowest concentration found to suppress growth – is 8 µg/mL (≈ 23.7 µM) in series [1]; over 128 µg/mL in series [2] (strain 0390); 8 µg/mL (≈ 23.7 µM) in series [2] (strain 3081, drug-resistant clinical isolate). Further, the “reduction of mutant in competition with H99-GFP” value in series [3] (∆hog1) is 20%; in series [3] (∆pbs2) it was 60%; in series [3] (∆ssk2), 63%. Moreover, the fraction unbound at 6 h, 5 µM in series [4] (read-out: Corrected % Protein binding (converted)) was 0.0112. In series [4] (uncorrected), this molecule showed a fraction unbound of 0.1. Moreover, the “time of Cmax post-administration” value in series [5] (brain tissue) and in series [5] (serum) was 10 min throughout. Also, the Cmax (usually the peak of the concentration-time curve) in series [5] (brain tissue) is 2000 ng/g; in series [5] (serum/plasma), 491 ng/mL. The figures for the half-life in series [5] (brain tissue) and in series [5] (serum/plasma) were 4.92 h and 0.383 h, respectively. Moreover, the blood-brain barrier penetration result in series [5] (mice) is given as “penetrated the blood-brain barrier”.
